Counter-ions that a name gives are not always drawn.

T1 sequence (Q99705 whole entry): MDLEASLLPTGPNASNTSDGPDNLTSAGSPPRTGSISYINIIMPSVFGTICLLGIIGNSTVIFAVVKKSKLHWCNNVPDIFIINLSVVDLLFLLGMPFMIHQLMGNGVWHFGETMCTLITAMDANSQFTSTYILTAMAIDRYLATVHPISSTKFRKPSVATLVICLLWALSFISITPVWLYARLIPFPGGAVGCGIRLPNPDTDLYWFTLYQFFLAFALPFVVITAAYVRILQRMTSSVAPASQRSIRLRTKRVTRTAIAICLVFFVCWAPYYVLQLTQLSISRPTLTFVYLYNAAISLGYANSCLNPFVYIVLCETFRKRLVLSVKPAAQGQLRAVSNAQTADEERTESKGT

This assay has as its target T1, Melanin Concentrating Hormone Receptor 1 (MCHR1) (Homo sapiens, UniProt Q99705).
T1 construct: expressed in transfected cells
The assay is described as follows: MCHR1 Receptor Activation Assay (GTPγ^35S). The class given is biochemical. The note with it: read-out: GTPγ^35S IC50.
For orientation: IC50 means the point on the concentration scale where inhibition reaches its midpoint. Consider `O=C(c1nnc(-c2ccccc2)o1)N1CC(Oc2ccc(CN3CC(O)C3)cc2Cl)C1` [Example 58, (3-(2-Chloro-4-((3-hydroxyazetidin-1-yl)methyl)phenoxy)azetidin-1-yl)(5-phenyl-1,3,4-oxadiazol-2-yl)methanone], for which the IC50 came out at 29 nM. Regarding `COc1ccc(-c2nnc(C(=O)N3CC(Sc4ccc(CN5CCCC5)cc4)C3)o2)cc1` [Example 59, (5-(4-Methoxyphenyl)-1,3,4-oxadiazol-2-yl)(3-(4-(pyrrolidin-1-ylmethyl)phenylthio)azetidin-1-yl)methanone], the half-inhibitory concentration (IC50) came out at 11 nM. In the case of `CN(C)Cc1ccc(SC2CN(C(=O)c3nnc(-c4ccccc4)o3)C2)cc1` [Example 60, (3-(4-((Dimethylamino)methyl)phenylthio)azetidin-1-yl)(5-phenyl-1,3,4-oxadiazol-2-yl)methanone] it was 19 nM. Take `COCCN(C)Cc1ccc(SC2CN(C(=O)c3nnc(-c4ccccc4)o3)C2)cc1` [Example 61, (3-(4-(((2-Methoxyethyl)(methyl)amino)methyl)phenylthio)azetidin-1-yl)(5-phenyl-1,3,4-oxadiazol-2-yl)methanone hydrochloride]: the concentration for half-maximal inhibition (IC50) worked out at 22 nM. `COC1CN(Cc2ccc(SC3CN(C(=O)c4nnc(-c5ccccc5)o4)C3)cc2)C1` [Example 62, (3-(4-((3-Methoxyazetidin-1-yl)methyl)phenylthio)azetidin-1-yl)(5-phenyl-1,3,4-oxadiazol-2-yl)methanone]: the IC50 was found to be 13 nM. For `CNCc1ccc(SC2CN(C(=O)c3nnc(-c4ccccc4)o3)C2)cc1` [Example 63, (3-(4-((Methylamino)methyl)phenylthio)azetidin-1-yl)(5-phenyl-1,3,4-oxadiazol-2-yl)methanone hydrochloride], the IC50 was found to be 23 nM. In the case of `CN(Cc1ccc(SC2CN(C(=O)c3nnc(-c4ccccc4)o3)C2)cc1)C1CCOCC1` [Example 64] it was 12 nM; in that of `CN(Cc1ccc(SC2CN(C(=O)c3nnc(-c4ccccc4)o3)C2)cc1)CC1CCOC1` (centres unmarked) [Example 65, (3-(4-((Methyl((tetrahydrofuran-3-yl)methyl)amino)methyl)phenylthio)azetidin-1-yl)(5-phenyl-1,3,4-oxadiazol-2-yl)methanone], 20 nM. In the case of `O=C(c1nnc(-c2ccccc2)o1)N1CC(Sc2ccc(CNC3CC3)cc2)C1` [Example 66, (3-(4-((Cyclopropylamino)methyl)phenylthio)azetidin-1-yl)(5-phenyl-1,3,4-oxadiazol-2-yl)methanone] it was 10 nM; in that of `O=C(c1nnc(-c2ccccc2)o1)N1CC(Sc2ccc(CN3CC(CO)C3)cc2)C1` [Example 67, (3-(4-((3-(Hydroxymethyl)azetidin-1-yl)methyl)phenylthio)azetidin-1-yl)(5-phenyl-1,3,4-oxadiazol-2-yl)methanone], 23 nM; in that of `O=C(c1nnc(-c2ccccc2)o1)N1CC(Oc2ccc(CN3CC(C(F)F)C3)cc2)C1` [Example 68, (3-(4-((3-(Difluoromethyl)azetidin-1-yl)methyl)phenoxy)azetidin-1-yl)(5-phenyl-1,3,4-oxadiazol-2-yl)methanone], 21 nM. Take `Cc1cc(OC2CN(C(=O)c3nnc(-c4ccccc4)o3)C2)ccc1CN1CCC(C)(CO)CC1` [Example 69]: the IC50 was found to be 22 nM. Turning to `CCC1(O)CN(Cc2ccc(OC3CN(C(=O)c4nnc(-c5ccc(OC)cc5)o4)C3)cc2)C1` [Example 70, (3-(4-((3-Ethyl-3-hydroxyazetidin-1-yl)methyl)phenoxy)azetidin-1-yl)(5-(4-methoxyphenyl)-1,3,4-oxadiazol-2-yl)methanone], the half-inhibitory concentration (IC50) turned out to be 20 nM. As to `CCC1(O)CN(Cc2ccc(OC3CN(C(=O)c4nnc(-c5ccccc5)o4)C3)cc2)C1` [Example 71, (3-(4-((3-Ethyl-3-hydroxyazetidin-1-yl)methyl)phenoxy)azetidin-1-yl)(5-phenyl-1,3,4-oxadiazol-2-yl)methanone], the IC50 stood at 23 nM. With `CCC1(O)CN(Cc2ccc(OC3CN(C(=O)c4nnc(-c5ccc(OC)cc5)o4)C3)c(C)c2)C1` [Example 72, (3-(4-((3-Ethyl-3-hydroxyazetidin-1-yl)methyl)-2-methylphenoxy)azetidin-1-yl)(5-(4-methoxyphenyl)-1,3,4-oxadiazol-2-yl)methanone], the IC50 amounted to 15 nM.

Turning to `CCC1(O)CN(Cc2ccc(OC3CN(C(=O)c4nnc(-c5ccc(OC)cc5)o4)C3)cc2C)C1` [Example 73, (3-(4-((3-Ethyl-3-hydroxyazetidin-1-yl)methyl)-3-methylphenoxy)azetidin-1-yl)(5-(4-methoxyphenyl)-1,3,4-oxadiazol-2-yl)methanone], the half-maximal inhibitory concentration (IC50) was determined as 14 nM. On to `CCC1(O)CN(Cc2ccc(OC3CN(C(=O)c4nnc(-c5ccccc5)o4)C3)c(C)c2)C1` [Example 74, (3-(4-((3-Ethyl-3-hydroxyazetidin-1-yl)methyl)-2-methylphenoxy)azetidin-1-yl)(5-phenyl-1,3,4-oxadiazol-2-yl)methanone], for which the concentration for half-maximal inhibition (IC50) worked out at 18 nM.

`CCC1(O)CN(Cc2ccc(OC3CN(C(=O)c4nnc(-c5ccccc5)o4)C3)cc2C)C1` [Example 75, (3-(4-((3-Ethyl-3-hydroxyazetidin-1-yl)methyl)-3-methylphenoxy)azetidin-1-yl)(5-phenyl-1,3,4-oxadiazol-2-yl)methanone]: the IC50 is 17 nM. Take `COc1ccc(-c2nnc(C(=O)N3CC(Oc4ccc(CN5CC(C)(O)C5)cc4)C3)o2)cc1` [Example 76, (3-(4-((3-Hydroxy-3-methylazetidin-1-yl)methyl)phenoxy)azetidin-1-yl)(5-(4-methoxyphenyl)-1,3,4-oxadiazol-2-yl)methanone]: the concentration for half-maximal inhibition (IC50) stood at 23 nM. For `CC1(O)CN(Cc2ccc(OC3CN(C(=O)c4nnc(-c5ccccc5)o4)C3)cc2)C1` [Example 77, (3-(4-((3-Hydroxy-3-methylazetidin-1-yl)methyl)phenoxy)azetidin-1-yl)(5-phenyl-1,3,4-oxadiazol-2-yl)methanone], the 50% inhibitory concentration (IC50) was found to be 40 nM. In the case of `CC1(O)CN(Cc2ccc(OC3CN(C(=O)c4nnc(-c5ccccc5)o4)C3)c(Cl)c2)C1` [Example 78, (3-(2-Chloro-4-((3-hydroxy-3-methylazetidin-1-yl)methyl)phenoxy)azetidin-1-yl)(5-phenyl-1,3,4-oxadiazol-2-yl)methanone], the half-inhibitory concentration (IC50) was determined as 42 nM. Consider `COc1ccc(-c2nnc(C(=O)N3CC(Oc4ccc(CN5CC(C)(O)C5)cc4Cl)C3)o2)cc1` [Example 79, (3-(2-Chloro-4-((3-hydroxy-3-methylazetidin-1-yl)methyl)phenoxy)azetidin-1-yl)(5-(4-methoxyphenyl)-1,3,4-oxadiazol-2-yl)methanone], for which the IC50 was determined as 34 nM. In the case of `COc1ccc(-c2nnc(C(=O)N3CC(Oc4ccc(CN5CC(C)(O)C5)c(C)c4)C3)o2)cc1` [Example 80, (3-(4-((3-Hydroxy-3-methylazetidin-1-yl)methyl)-3-methylphenoxy)azetidin-1-yl)(5-(4-methoxyphenyl)-1,3,4-oxadiazol-2-yl)methanone] it was 23 nM.

For the compound `COc1ccc(-c2nnc(C(=O)N3CC(Oc4ccc(CN5CCC(F)(CO)CC5)cc4)C3)o2)cc1` [Example 81, (3-(4-((4-Fluoro-4-(hydroxymethyl)piperidin-1-yl)methyl)phenoxy)azetidin-1-yl)(5-(4-methoxyphenyl)-1,3,4-oxadiazol-2-yl)methanone], the half-inhibitory concentration (IC50) is 25 nM. In the case of `COc1ccc(-c2nnc(C(=O)N3CC(Oc4ccc(CN5CCC(C)(CO)CC5)c(C)c4)C3)o2)cc1` [Example 82, (3-(4-((4-(Hydroxymethyl)-4-methylpiperidin-1-yl)methyl)-3-methylphenoxy)azetidin-1-yl)(5-(4-methoxyphenyl)-1,3,4-oxadiazol-2-yl)methanone] it was 22 nM.

For the compound `COc1ccc(-c2nnc(C(=O)N3CC(Oc4ccc(CN5CCC(C)(CO)CC5)cc4)C3)o2)cc1` [Example 83, (3-(4-((4-(Hydroxymethyl)-4-methylpiperidin-1-yl)methyl)phenoxy)azetidin-1-yl)(5-(4-methoxyphenyl)-1,3,4-oxadiazol-2-yl)methanone], the IC50 worked out at 25 nM. With `COc1ccc(-c2nnc(C(=O)N3CC(Oc4ccc(CN5CCC(C)(CO)C5)cc4)C3)o2)cc1` (centres unmarked) [Example 84, (3-(4-((3-(hydroxymethyl)-3-methylpyrrolidin-1-yl)methyl)phenoxy)azetidin-1-yl)(5-(4-methoxyphenyl)-1,3,4-oxadiazol-2-yl)methanone], the half-maximal inhibitory concentration (IC50) came to 17 nM. Regarding `CC1(CO)CCN(Cc2ccc(OC3CN(C(=O)c4nnc(-c5ccccc5)o4)C3)cc2)C1` (centres unmarked) [Example 85, (3-(4-((3-(hydroxymethyl)-3-methylpyrrolidin-1-yl)methyl)phenoxy)azetidin-1-yl)(5-phenyl-1,3,4-oxadiazol-2-yl)methanone], the IC50 stood at 19 nM.

For `COc1ccc(-c2nnc(C(=O)N3CC(Oc4ccc(CN5CCCC(O)CC5)cc4)C3)o2)cc1` (centres unmarked) [Example 86, (3-(4-((4-hydroxyazepan-1-yl)methyl)phenoxy)azetidin-1-yl)(5-(4-methoxyphenyl)-1,3,4-oxadiazol-2-yl)methanone], the half-maximal inhibitory concentration (IC50) is 15 nM. In the case of `CC1(O)CCCN(Cc2ccc(OC3CN(C(=O)c4nnc(-c5ccccc5)o4)C3)cc2)CC1` (centres unmarked) [Example 87, (3-(4-((4-hydroxy-4-methylazepan-1-yl)methyl)phenoxy)azetidin-1-yl)(5-phenyl-1,3,4-oxadiazol-2-yl)methanone] it was 8.1 nM. In the case of `COc1ccc(-c2nnc(C(=O)N3CC(Oc4ccc(CN5CCCC(C)(O)CC5)cc4)C3)o2)cc1` (centres unmarked) [Example 88, (3-(4-((4-hydroxy-4-methylazepan-1-yl)methyl)phenoxy)azetidin-1-yl)(5-(4-methoxyphenyl)-1,3,4-oxadiazol-2-yl)methanone], the IC50 came out at 17 nM.

For `COc1ccc(-c2nnc(C(=O)N3CC(Oc4ccc(CN5CCC(CO)CC5)cc4)C3)o2)cc1` [Example 89, (3-(4-((4-(hydroxymethyl)piperidin-1-yl)methyl)phenoxy)azetidin-1-yl)(5-(4-methoxyphenyl)-1,3,4-oxadiazol-2-yl)methanone], the half-inhibitory concentration (IC50) was found to be 22 nM.
